Laboratory results reported in patent US10149887B2, “Peptides and peptidomimetics in combination with t cell activating and/or checkpoint inhibiting agents for cancer treatment” (CanBas Co., Ltd., priority 2015, dated 2018).
Square brackets hold non-standard residues; d marks the D form. Peptide text beside a SMILES is read from it. dPhe(F5) = N[C@H](Cc1c(F)c(F)c(F)c(F)c1F)C(=O)O; dBpa = N[C@H](Cc1ccc(C(=O)c2ccccc2)cc1)C(=O)O; dCha = N[C@H](CC1CCCCC1)C(=O)O

What was measured:
[1] = system: Jurkat cells; test: G2 checkpoint abrogation, flow cytometry of bleomycin treated Jurkat cells; type: cell-based, human
Method: Cell-cycle analysis The cell cycle status of the cells treated with bleomycin or adriamcin were analyzed by flow cytometry as described by Kawabe (1997) Nature 385:454-458. In brief, two million cells were re-suspended and incubated in 200 μl Krishan's solution (0.1% Sodium citrate, 50 μg/ml PI, 20 μg/ml RNase A and 0.5% NP-40) for 1 hr at 4° C. and analyzed by a flow cytometry, FACScan™ (Beckton Dickinson, Mountain View, Calif.) with the program CELLQuest™ (Beckton Dickinson).
Flow cytometry analysis of G2 checkpoint abrogation was performed using human leukemia derived Jurkat cell line. In brief, cultured cells were treated with various doses of peptide/peptidomimetic and 40 μg/ml bleomycine for 24 hr. The DNA of the cells was stained with propidium iodide and analyzed by flow cytometry.
The “G2 abrogating dose” indicates the peptide/peptidomimetic dose with 40 μg/ml bleomycine that produced detectable G2 checkpoint abrogation activity following treatment for 24 hours.
The G2 checkpoint abrogating activity of various arginine rich sequences at different doses on cells treated with bleomycine was studied. Briefly, peptides were added to culture medium of Jurkat cells with bleomycin (40 μg/ml) at 0.2 μg/ml, 0.39 μg/ml, 0.78 μg/ml, 1.56 μg/ml, 3.125 μg/ml, 6.25 μg/ml, 12.5 μg/ml, 25 μg/ml and 50 μg/ml. Cells were subsequently harvested after 24 hours, stained with Krishan's solution, and analyzed with flow cytometry as previously described.

[2] = system: Jurkat cells; test: M phase checkpoint abrogation / non specific toxicity, colchicine treated Jurkat cells; type: cell-based
[3] = system: HUVEC; test: G2 checkpoint abrogation by CBP501 combined with cis-platin, flow cytometry; type: cell-based, human; conditions: umbilical vein endothelium, cis-platin 3 μg/ml 3 hr, then 45 hr
Method: (§1) The medium was aspirated, fresh medium without these compounds was added and the cells were incubated for an additional 45 hr. The cells including floating cells were harvested using trypsin-EDTA solution, incubated with Krishan's solution and analyzed for DNA content by flow cytometry as previously described.

[4] = system: HCT116; test: as above; type: cell-based; conditions: HCT116, colon, hMLH1; cis-platin 3 μg/ml 3 hr, then 45 hr
Method: as §1

[5] = In vivo half life in mouse serum (HPLC); conditions: 40 mg/kg ip, read-out: Half-life after 40 mg/kg intra-peritoneal injection (converted)
[6] = system: MIAPaCa2 human pancreatic carcinoma cells; test: MIAPaCa2 subcutaneous xenograft in scid mice; type: in vivo, mouse
Method: Day0 indicates treatment initiation. Mean tumor sizes with standard deviation for each treatment group are indicated on the Y-axis and the number of days following treatment initiation are indicated on the X-axis.
To study in vivo efficacy of the compounds, MIAPaCa2 human pancreatic carcinoma cells were implanted subcutaneously in scid mice. The treatment was initiated when the size of the primary tumor became 0.1 cm3 (Day0) or larger, e.g., 7 or 8 mm in diameter. CDDP (3 mg/kg) and CBP 501 (10 or 40 mg/kg) were intra-peritoneally administered alone or in combination. Tumor sizes were measured using calipers three times a week, and volumes were calculated using the formula: weight (mg)=[width (mm)2×length (mm)]/2. Mean tumor sizes for each treatment group are plotted (n=4) against the days after the start of treatment (FIG. 10).

[7] = system: thrombin/antithrombin complex; test: Thrombin/antithrombin complex in plasma of LPS treated mice (ELISA); type: in vivo, mouse; conditions: C57BL/6 mice, CBP501 7.5 mg/kg, plasma 3 hours after
Description: The data were obtained in each condition out of four animals.

[8] = system: M1 and M2 macrophages; test: Phagocytic activity of M1 and M2 macrophages (fluorescent beads, flow cytometry); type: cell-based, human; conditions: in vitro
Method: Referring to FIGS. 19A and 19B, macrophages were obtained by stimulating human peripheral blood mononuclear cells by 0.32 uM of PMA and removing all suspension cells 48 hours of PMA stimulation. The cells were further incubated with 50 ng/ml IFN-gamma, 10 ng/ml LPS to obtain M1 phenotype, and 20 ng/ml IL-4 to obtaine M2 macrophages. Both treatment was with or without CBP501. The phagocytic activity was monitored by using fluorescent labelled beads and flow cytometry.

[9] = system: calreticulin; test: Cell surface calreticulin exposure in CT26WT cells (FACS); type: cell-based, murine; conditions: 10-20 uM CDDP with 0.5 μM CBP501, 45 min
Method: Two days later, the cells were collected and analyzed by FACS with specific calreticulin antibody and propidium iodide (n=3). Samples were compared by student's t-test. *P<0.05 **P<0.01, compared with untreated cells, and ^†P<0.05, ^††P<0.01, compared with the corresponding CDDP alone.
After changing with fresh drug-free medium, cells were incubated for 24, 48, or 72 hours for Immunoblotting analysis of phospho-eIF2-alpha, for calreticulin analysis by FACS, or for HMGB1 ELISA.
Cells were collected and washed with PBS, followed by fixation with PBS containing 0.25% PFA for 5 minutes. The fixed cells were washed twice with ice-cold PBS and treated on ice with anti-calreticulin antibody (abcam) diluted with PBS containing 2% FBS (1/200) for 30 minutes. The primary antibody were removed with twice PBS containing 2% FBS wash and treated with alexa488-condjugated secondary antibody diluted with PBS containing 2% FBS (1/500) for 30 minutes at RT. The secondary antibody were removed with twice PBS and treated on ice with propidium iodide (1 ug/ml) for more than 5 minutes, followed by FACS analysis using FACSCalibur.

[10] = system: CT26WT; test: Analysis of tumor infiltrating lymphocytes in CT26WT tumors (flow cytometry); type: in vivo, mouse; conditions: day 11
Method: CT26WT were subcutaneously inoculated into the left flank of female Balb/c mice. […] Then, tumors were extracted from mice on day 11, and digested with triple enzyme mix (collagenase, hyaluronidase and DNase) to obtain single cell suspension. The cells were treated with FcR blocker and stained with specific antibody for multi-color flow cytometry analysis including CD4, CD8, CD45, CD11b, Ly6G, Ly6C, F4/80, MHC class II and CD206. Quantitative data (FIG. 32) are shown as mean values with SEM (n=3-4 mice/group). *: p<0.05, **: p<0.01, n.s.: not significant (unpaired, 2-tailed student's t-test), as compaired with cells from vehicle-treated or PD-1-treated tumor.

[11] = system: advanced solid tumors; conditions: monotherapy, cited from earlier work
[12] = cited from earlier work
[13] = system: CT26WT cells; conditions: 3 hours treatment, two days later
Method: Two days later, the cell cycle phase distribution (Y-axis) and cell death was analyzed by BD FACSCalibur by propidium iodide staining.
For cell cycle analysis, cells collected by trypsine/EDTA (Gibco) were stained with Krishan's buffer (0.1% sodium citrate, 50 Ag/mL propidium iodide, 20 Ag/mL RNase A, 0.5% NP40) followed by flow cytometry using FACSCalibur (Becton Dickinson).

N=C(N)NCCC[C@@H](NC(=O)[C@@H](CCCNC(=N)N)NC(=O)[C@@H](CCC(N)=O)NC(=O)[C@@H](CCCNC(=N)N)NC(=O)[C@@H](CCCNC(=N)N)NC(=O)[C@@H](CCCNC(=N)N)NC(=O)[C@@H](CC1CCCCC1)NC(=O)[C@@H](Cc1c(F)c(F)c(F)c(F)c1F)NC(=O)[C@@H](CO)NC(=O)[C@@H](Cc1c[nH]c2ccccc12)NC(=O)[C@@H](CO)NC(=O)[C@H](N)Cc1ccc(C(=O)c2ccccc2)cc1)C(=O)O [CBP501, (d-Bpa)(d-Ser)(d-Trp)(d-Ser)(d-Phe-2,3,4,5,6-F)(d-Cha)(d-Arg)(d-Arg)(d-Arg)(d-Gln)(d-Arg)(d-Arg)] (H-[dBpa][dS][dW][dS][dPhe(F5)][dCha][dR][dR][dR][dQ][dR][dR]-OH; N-terminus and C-terminus assumed)
G2 checkpoint abrogating activity (in words) ([1]; Jurkat cells with bleomycin 40 μg/ml): abrogated in a dose dependent manner
G2 abrogating dose ([1]; dose with 40 μg/ml bleomycine giving detectable G2 checkpoint abrogation, 24 hours): ≥0.39 µM
Non specific toxicity (M checkpoint abrogation), dose up to which absent ([2]; 0.5 μg/ml colchicine, unchanged percentage of M phase arrested cells): > 50 µM
M phase cell cycle arrest and/or non specific toxicity induced by colchicine (in words) ([2]; FIG. 12): does not affect M phase cell cycle arrest and/or non specific toxicity induced by colchicine
Appearance of side effect when used with Colchicine ([2]; dose with 5 μg/ml colchicine that produced Jurkat cell cycle disturbance, 24 hours): >25 µM
G2 checkpoint abrogating dose of CBP501, cis-platin [3]: >50 µM
G2 checkpoint abrogating dose of CBP501, cis-platin [4]: <2 µM
half-life [5]: 3 h
Tumor growth, CBP501 treatment alone ([6]; CBP501 10 or 40 mg/kg ip): suppresses the growth of human pancreatic cancer cell in vivo
Anti-tumor activity of cisplatin in combination with CBP501 ([6]; CDDP 3 mg/kg and CBP501 10 or 40 mg/kg ip): increased the anti-tumor activity of cisplatin
Thrombin/anti-thrombin complexes in vivo [7]: increased thrombin/anti-thrombin complexes
Phagocytosis of M1 and M2 macrophages [8]: inhibited phagocytosis of both M1 and M2 macrophages
Calreticulin exposure to the cell surface [9]: Positive effect
CD8 (=CD45+CD8+) infiltration at tumor site, combined with CDDP and anti-PD1 antibody ([10]; CDDP 4 mg/kg + CBP501 6 mg/kg + anti-PD1 400 ug/mouse): statistically significant
CD8 (=CD45+CD8+) infiltration at tumor site, combined with CDDP ([10]; CDDP 4 mg/kg i.v. + CBP501 6 mg/kg i.v.): tended to increase
M2 macrophages (=F4/80+CD206+) in tumor ([10]; combined with CDDP or CDDP plus anti-PD1 antibody): decreased M2 macrophages
Stable disease ([11]; 60-min i.v. infusion days 1, 8, 15 every 28 days): Two patients achieved 7 cycles of treatment with stable disease
Discontinuation due to toxicity ([11]; days 1-8-15 every 28 days): No patients discontinued due to toxicity
Patients with dose limiting allergic reactions (grade 3) ([12]; CBP501 36.4 mg/m^2 and cisplatin 75 mg/m^2): two out of six
MTD of CBP501 in combination with cisplatin ([12]; with cisplatin 75 mg/m^2, once every 21 days): 24.3 mg/m^2
Potency in changing cell cycle phase distribution, CDDP combined with CBP501 vs CDDP alone [13]: about 2 times
